Assay [1] is described as follows: HepG2 cell cytotoxicity, dose response, cytotoxicity control, plate reader, cherry-pick, antagonist series (AID 743416). The assay is classed as functional, cell-based.
Assay [2] in a line: A549 cell cytotoxicity, dose response, cytotoxicity control, plate reader, cherry-pick, antagonist series (AID 743412). The assay is classed as functional, cell-based.
Assay [3] in a line: MC4R antagonists, dose response, counter-screen for LGR2 antagonist project, cell-based, plate reader, cherry pick (AID 743444).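 Note: transfected HEK 293 cells stimulated with alpha-MSH peptide; potency of inhibitors of the alpha-MSH evoked signal.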 The assay is classed as functional.
Assay [4] is described as follows: HEK293 cell cytotoxicity, dose response, cytotoxicity control, plate reader, cherry-picked samples (AID 743446). The assay is classed as functional, cell-based.
Assay [5] can be described thus: LGR2 antagonists, dose response, cell-based, HEK293, CRE-luciferase reporter, cherry pick, set 2 (AID 743343).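 Note: transfected cells were stimulated with diluted bursicon conditioned medium after compound addition.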 The assay is classed as functional. For orientation: In a reporter assay the amount or activity of a reporter protein is the signal.
The target of assay [6] is COUP transcription factor 2 (Homo sapiens, UniProt P24468). In words: Luminescence-based cell-based high throughput dose response assay to identify inhibitors of COUP-TFII (NR2F2). The assay is classed as functional.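 Note: HEK293 cells transiently cotransfected with COUP-TFII expression vector and reporter; luciferase reporter luminescence driven by COUP-TFII from the pX2-168 reporter plasmid.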
Assay [7] deals with NAD-dependent protein deacylase sirtuin-5, mitochondrial (Homo sapiens, UniProt Q9NXA8). Description: SIRT5 desuccinylase inhibitors, dose response, biochemical, fluorescence imaging, cherry-pick, set 5 (AID 720591).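 Note: desuccinylation of succinyl peptide AMC substrate read as fluorescence after trypsin release; potency of inhibitors that lower fluorescence and may act on trypsin instead.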
A short description of assay [8]: NIH:OVCAR-3 ovarian cancer cell cytotoxicity, dose response, PAX8 inhibitor project, plate reader, dry powder samples (AID 743044). The assay is classed as functional, cell-based.
Another assay has as its target Paired box protein Pax-8 (Homo sapiens, UniProt Q06710). In words: inhibitors of PAX8-driven TPO luciferase reporter, dose response, RMG-I cells, cherry-pick (AID 687027).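 Note: luciferase reporter driven by Pax8 target thyroperoxidase promoter measured by SteadyGlo luminescence.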 The assay is classed as functional, cell-based.
The nature of assay [9]: A2780 ovarian cancer cell cytotoxicity, dose response, cytotoxicity control, plate reader, dry powder samples (AID 743046). The assay is classed as functional, cell-based.
A short description of assay [10]: RKO cell viability reduction, dose response, CellTiter-Glo luminescence (AID 1117322). The assay is classed as functional. (Cellular ATP, detected with luciferase, serves as a proxy for viable cell number.)
Assay [11] in a line: cytotoxicity toward Colo320 cells – cell-based, CellTiter-Glo luminescence, IC50, dose response (AID 1117334). The assay is classed as functional. Particulars: COLO 320.
Assay [12] can be described thus: Concentration-dependent survival of SW480 colon cancer line, luminescence detection with CellTiter-Glo, half-maximal inhibitory concentration (AID 1117338). The assay is classed as functional.
A short description of assay [13]: CellTiter-Glo luminescent dose response of DLD-1 viability loss (AID 1117352). The assay is classed as functional.
The nature of assay [14]: SNU-C1 cell viability reduction, dose response, CellTiter-Glo luminescence (AID 1117323). The assay is classed as functional, cell-based.
Assay [15] in a line: cytotoxicity toward HCT116 cells – cell-based, CellTiter-Glo luminescence, IC50, dose response (AID 1117332). The assay is classed as functional. Particulars: HCT-116.
The nature of assay [16]: cytotoxicity toward HT-29 cells – cell-based, CellTiter-Glo luminescence, IC50, dose response (AID 1117330). The assay is classed as functional.

Activity calls are given as the source filed them. A value given as a limit tells only on which side of the number the result lay.

Among the data in ChEMBL document CHEMBL1201862, “PubChem BioAssay data set” (2004) are AC50 and IC50 values, retold here.

NAD-dependent protein deacylase sirtuin-5, mitochondrial, sequence (Q9NXA8 whole entry): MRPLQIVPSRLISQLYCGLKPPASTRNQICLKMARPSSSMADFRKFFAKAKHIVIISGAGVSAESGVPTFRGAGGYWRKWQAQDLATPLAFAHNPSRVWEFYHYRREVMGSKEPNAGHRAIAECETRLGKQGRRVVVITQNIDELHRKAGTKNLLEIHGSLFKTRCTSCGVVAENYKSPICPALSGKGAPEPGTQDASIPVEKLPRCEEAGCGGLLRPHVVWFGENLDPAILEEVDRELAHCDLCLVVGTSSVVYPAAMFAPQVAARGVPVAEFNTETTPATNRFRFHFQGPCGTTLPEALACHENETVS
Paired box protein Pax-8, sequence (Q06710 whole entry): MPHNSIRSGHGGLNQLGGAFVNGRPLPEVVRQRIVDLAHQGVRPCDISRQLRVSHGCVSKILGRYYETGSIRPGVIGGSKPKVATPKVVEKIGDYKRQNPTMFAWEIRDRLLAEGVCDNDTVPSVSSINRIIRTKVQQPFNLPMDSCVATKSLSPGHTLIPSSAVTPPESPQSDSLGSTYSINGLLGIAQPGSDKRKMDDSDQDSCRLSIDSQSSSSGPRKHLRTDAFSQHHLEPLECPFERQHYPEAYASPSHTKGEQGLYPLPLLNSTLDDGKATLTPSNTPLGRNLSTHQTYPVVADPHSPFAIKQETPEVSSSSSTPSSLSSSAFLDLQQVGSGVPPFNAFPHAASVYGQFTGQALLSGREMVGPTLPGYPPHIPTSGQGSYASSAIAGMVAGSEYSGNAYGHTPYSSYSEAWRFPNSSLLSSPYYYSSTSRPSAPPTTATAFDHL
COUP transcription factor 2, sequence (P24468 whole entry): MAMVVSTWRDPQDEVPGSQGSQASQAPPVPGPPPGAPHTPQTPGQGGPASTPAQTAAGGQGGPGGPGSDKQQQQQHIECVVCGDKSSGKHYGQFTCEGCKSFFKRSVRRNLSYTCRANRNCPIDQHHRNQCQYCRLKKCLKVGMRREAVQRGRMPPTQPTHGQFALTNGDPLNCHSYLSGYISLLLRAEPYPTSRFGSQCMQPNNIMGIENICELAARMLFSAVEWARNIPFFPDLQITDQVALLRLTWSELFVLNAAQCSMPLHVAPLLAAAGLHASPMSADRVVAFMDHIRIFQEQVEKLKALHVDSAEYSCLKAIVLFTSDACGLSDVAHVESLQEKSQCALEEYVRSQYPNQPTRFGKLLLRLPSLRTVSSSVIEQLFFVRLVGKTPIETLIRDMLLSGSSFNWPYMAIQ

For the compound `COc1ccc(-n2nnnc2C(c2cc3ccccc3o2)N2CCC(n3c(O)nc4ccccc43)CC2)cc1` (configuration not stated), the AC50 in assay [1] is 4.45 µM (active); in assay [2] it was 38.9 µM (active); in assay [3], 14.3 µM (active); in assay [4] it was 8.29 µM (active); in assay [5] it was 13.7 µM (active). In addition, in [6], the IC50 is 6.4 µM (active).
For the compound `COc1cc(Nc2ncc3c(n2)CCN(C(=O)Nc2ccc(C(C)C)cc2)C3)cc(OC)c1OC`, in assay [7], the AC50 is 17 µM (active).
For the compound `C[C@@H]1CN([C@H](C)CO)C(=O)c2cc(NS(=O)(=O)c3ccc(Cl)cc3)ccc2O[C@@H](C)CCCCO[C@@H]1CN(C)Cc1ccc(Cl)c(Cl)c1`, the AC50 in [8] was 49.5 µM (active); at Paired box protein Pax-8, 11.7 µM (active); in assay [9], 2.73 µM (active).
Turning to `CC=CC1=C(C(=O)O)N2C(=O)[C@@H](NC(=O)[C@H](N)c3ccc(O)cc3)[C@H]2SC1`, the IC50 in [10], in assay [11], in [12], in assay [13], in assay [14] and in [15] was > 20 µM (inactive) in each case. Besides, in assay [16], the IC50 was > 20 µM (inactive).

For orientation: AC50 means the concentration at which the activity in the assay is half-maximal. As usually defined, the IC50 is the concentration needed to halve the response being measured.
